Source: US9662059B2, “Imaging agents for monitoring changes of dopamine receptors and methods of using thereof” (The Regents of the University of California, priority 2007, dated 2017)
“Also recorded” adds a separate entry of the source.

How the values were obtained:
D2R [1] = biological target: T1, D2R (Rattus norvegicus, UniProt P61169); assay: in vitro autoradiography of ^18F-fallypride binding in rat pancreas sections; set-up: from tissue; host or cells: rat pancreas, 10 μm cryosections
Method: Male Sprague-Dawley rats (200-250 g) or male Lewis rats (100-150 g) were anesthetized and decapitated. The brain and pancreas was rapidly removed and frozen in isopentane at −20° C. […] Slices were stored at −20° C. Slices were preincubated for 10 minutes in 50 mM Tris-HCl, 120 mM NaCl, 5 mM KCl buffer (pH 7.4). Slices were then incubated with 1-2 μCi/cc of ^18F-fallypride at 37° C. for 1 hour. […] After incubation, slices were rinsed twice for 2 min in ice-cold buffer, dipped briefly in ice-cold water, blown dry and laid out for autoradiography. Slides with tissue samples were exposed to a multipurpose storage phosphor screen for 24 hours and developed; the autoradiographs were generated using the Phosphor Cyclone Imager (Packard Instruments Co.) The amount of binding in the pancreas was measured as digital light units, DLU/mm^2. Autoradiographs were quantified using a computer-based image analysis system (OptiQuant Version 4.0 Packard Instruments Co., Boston Mass.).

[2] = arterial blood plasma at 3 hr; cited from earlier work
D2R [3] = biological target: T1, D2R; assay: ^18F-fallypride binding to pancreatic and brain sections of control and streptozotocin-treated rats; set-up: from tissue; host or cells: pancreas, striatum and cerebellum sections of male Sprague-Dawley rats; species or system male Sprague-Dawley rats
Method: Male Sprague-Dawley rats were used to develop a model for diabetes. Streptozotocin (STZ) (80 mg/kg body weight, i.p. injection) chemically destroyed beta-cells and induced diabetes in adult male Sprague-Dawley rats (Lai et al., Am J Physiol Endocrinol Metab 2007 292:E292). Blood glucose was monitored by tail vein-sampling. Diabetic rats were harvested 7 days after the onset of diabetes. ^18F-fallypride binding to pancreatic and brain sections was done for three pairs of STZ- and age-matched rats. […] Specific binding was determined for each animal by subtracting nonspecific binding, measured in digital light units per mm^2 (DLU/mm^2), from total binding for adjacent tissue sections in brain and pancreas.

D2R [4] = biological target: T2, D2R (Homo sapiens, UniProt P14416); assay: human PET imaging of the pancreas region with whole body HR+ PET scanner; format: in vivo; details: healthy volunteer, 80 mins post injection
T2 construct: from tissue; host or cells: pancreas region of a healthy human volunteer, in vivo
T2 sequence (P14416 whole entry): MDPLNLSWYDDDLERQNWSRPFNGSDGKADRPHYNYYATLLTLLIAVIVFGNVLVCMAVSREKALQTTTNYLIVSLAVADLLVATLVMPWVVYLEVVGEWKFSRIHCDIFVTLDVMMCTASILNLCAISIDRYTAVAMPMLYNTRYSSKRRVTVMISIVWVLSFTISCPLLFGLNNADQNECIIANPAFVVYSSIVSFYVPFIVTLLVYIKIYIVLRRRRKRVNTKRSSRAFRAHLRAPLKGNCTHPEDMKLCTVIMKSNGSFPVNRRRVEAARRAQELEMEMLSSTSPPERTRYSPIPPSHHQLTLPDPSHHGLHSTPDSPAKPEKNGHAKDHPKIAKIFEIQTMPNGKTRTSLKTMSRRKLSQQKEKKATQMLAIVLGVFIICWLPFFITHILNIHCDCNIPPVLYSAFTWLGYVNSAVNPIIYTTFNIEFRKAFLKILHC
Method: The subjects were prepared by placing one intravenous catheter in one arm for administration of the ^18F-fallypride. The subjects were then positioned in the PET scanner, and their alignment was marked for purposes of repositioning. The subjects were requested to lay still during the PET data acquisition in the dimly lit quiet room but were free to open/shut their eyes. The PET data was acquired with an EXACT HR+ PET scanner (in-plane FWHM=4.6 mm, axial FWHM=3.5 mm, axial FOV=15.52 cm). A 5-minute transmission scan using ^68Ge/^68Ga rod sources was acquired prior to administration of the radiopharmaceutical. Scanning was initiated with a 30-second bolus infusion of the radiopharmaceutical followed by a saline flush. A ^18F-fallypride dose of approximately 0.07 mCi/kg was administered to each of the subjects (subjects weight ranged between 70 to 95 kg). The dynamic scanning sequence consisted of 6 frames at 30 seconds, 7 frames at 1 minute, 5 frames at 2 minutes, 4 frames at 5 minutes and 4 frames at 10 minutes. The subject was marked for repositioning and then removed from the scanner for a 20-minute break period. A second dynamic sequence with 8 frames at 10 minutes each was acquired, yielding a total study time of approximately 3 hours. The data set was reconstructed using the ECAT v 7.2 software, with an OSEM algorithm (3 iterations, 16 subsets). […]

D2R [5] = biological target: T1, D2R; assay: ex vivo autoradiography of brain and pancreas after intravenous ^18F-fallypride; format: in vivo, Lewis rats; set-up: The brain and pancreas were isolated and sectioned to 10 μm and 40 μm sections; from tissue; host or cells: brain (striata, cerebellum) and pancreas of living Lewis rats
Method: For ex vivo studies, Lewis rats were anesthetized with halothane and injected intravenously with ^18F-fallypride (0.1 to 0.2 mCi). The rats were then sacrificed at either 60 or 120 min post-injection. The brain and pancreas were isolated and sectioned to 10 μm and 40 μm sections. Slides with tissue samples were exposed to a multipurpose storage phosphor screen for 24 hours and developed; the autoradiographs were generated using the Phosphor Cyclone Imager (Packard Instruments Co.). Brain slices contained the striata, cerebellum and other regions known to contain D2R. The amount of binding to the striata, cerebellum and pancreas was measured as digital light units, DLU/mm^2. Autoradiographs were quantified using a computer-based image analysis system (OptiQuant Version 4.0 Packard Instruments Co., Boston Mass.).

dopamine D2/D3 receptors = assay: human PET/CT imaging with ^18F-fallypride, standard uptake values in organs; format: in vivo; details: normal human subject
Method: The subjects were prepared by intravenous administration of ^18F-fallypride. After 80 minutes, the subjects were then positioned in the Siemen's PET/CT Biograph. The subjects were requested to lay still during the PET/CT data acquisition in the dimly lit quiet room but were free to open/shut their eyes. Static scans of 10 mins duration each were acquired at different bed positions.
The reconstructed dynamic PET data sets were first realigned to a reference summed image (50-80 minutes) to correct for patient motion and slight differences in positioning between the dynamic scans. These dynamic data sets were then used to create time-activity curves as well as pixel-by-pixel parametric images of the distribution volume ratio (DVR). The cerebellum (cerebellar lobes) was chosen as the reference region, having a minimal amount of specific binding to dopaminergic sites. The PET/CT data was analyzed to provide standard uptake values (SUV) in different organs which were identified using the CT image.

D2/D3 receptors = details: cited from earlier work
[6] = rat killed at 60 min post-injection

T1 sequence (P61169 whole entry): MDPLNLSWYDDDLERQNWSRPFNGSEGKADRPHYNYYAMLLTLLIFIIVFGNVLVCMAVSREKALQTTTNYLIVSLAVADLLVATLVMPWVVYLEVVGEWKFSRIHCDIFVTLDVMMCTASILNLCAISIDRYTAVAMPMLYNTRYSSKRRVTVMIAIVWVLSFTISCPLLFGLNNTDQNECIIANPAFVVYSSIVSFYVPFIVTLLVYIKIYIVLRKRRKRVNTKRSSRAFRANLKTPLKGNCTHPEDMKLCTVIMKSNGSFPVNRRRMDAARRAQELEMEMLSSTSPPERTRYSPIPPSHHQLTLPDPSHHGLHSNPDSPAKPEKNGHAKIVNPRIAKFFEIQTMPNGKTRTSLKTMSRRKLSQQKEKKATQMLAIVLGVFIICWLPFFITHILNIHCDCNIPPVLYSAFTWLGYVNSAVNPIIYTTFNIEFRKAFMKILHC

## NCCc1ccc(O)c(O)c1 [Dopamine]
D2R [1]; rat pancreatic sections, competitor 100 μM
  displacement of ^18F-fallypride binding to the pancreas: does not displace; also recorded: did not displace

## C=CCN1CCC[C@H]1CNC(=O)c1cc(CCC[18F])cc(OC)c1OC [^18F-fallypride]
[2]
  plasma radioactivity that was ^18F-fallypride: 30-40%
D2R [3]; Control rats
  ^18F-Fallypride binding, Cerebellum: 1597 ± 1382 DLU/mm^2
  ^18F-Fallypride binding, Pancreas: 1393 ± 479 DLU/mm^2
  ^18F-Fallypride binding, Striatum: 121,167 ± 41,190 DLU/mm^2
D2R [3]; STZ-treated rats vs control
  change in ^18F-fallypride binding to control tissues striatum and cerebellum: no change
D2R [3]; STZ-treated rats vs control, p<0.05
  reduction of specific ^18F-fallypride binding in the pancreas: ~70%
D2R [3]; Streptozotocin-treated rats
  ^18F-Fallypride binding, Cerebellum: 1119 ± 632 DLU/mm^2
  ^18F-Fallypride binding, Striatum: 112,059 ± 35,271 DLU/mm^2
D2R [3]; Streptozotocin-treated rats, p < 0.05
  ^18F-Fallypride binding, Pancreas: 310 ± 303 DLU/mm^2
D2R [4]
  Uptake of ^18F-fallypride in the human pancreas: comparable with that in the brain
D2R [1]; 10 μm sections, 37° C., 1 hour
  ^18F-fallypride binding to rat pancreatic sections: binds to rat pancreatic sections
D2R [5]; Rat #2 killed at 120 min
  binding in the pancreas: significant amount of binding
D2R [5]; [6]
  Ratio of pancreas to cerebellum: 5.3
  Ratio of striatum to cerebellum: 55.3
Dopamine D2/D3 receptors
  Ratio Organ/Ant Abd muscle, Pancreas- Body: 2.83
  Ratio Organ/Ant Abd muscle, Pancreas- Head: 2.73
  Ratio Organ/Ant Abd muscle, Pancreas- Tail: 3.10
  SUV, Anterior Abdominal Muscle: 0.6
  SUV, Gall bladder: 123
  SUV, Kidney: 2.2
  SUV, Liver: 5.0
  SUV, Liver left lobe: 4.9
  SUV, Liver right lobe: 5.1
  SUV, Lung: 1.1
  SUV, Pancreas- Body: 1.7
  SUV, Pancreas- Head: 1.64
  SUV, Pancreas- Tail: 1.86
  SUV, Psoas Muscle: 0.9
  SUV, Spine (bone marrow): 2.8
  SUV, Spleen: 1.5
D2/D3 receptors; human brain
  decrease in binding with aging, all brain regions: > 10 % per decade
D2/D3 receptors; younger subject
  BP, orbitofrontal cortex: 0.4
  BP, putamen: 37
